# Data published in US6653529B2, “Use of the maize X112 mutant ahas 2 gene and imidazolinone herbicides for selection of transgenic monocots, maize, rice and wheat plants resistant to the imidazolinone herbicides” (BASF Aktiengesellschaft, priority 2000, dated 2003).
# Experiments:
# [1] = system: transgenic rice containing 35S/als transgene; details: cited from earlier work
# [2] = system: AHAS (acetohydroxyacid synthase) in extracts of Nortai, Line 26 and Line 29; assay: In vitro AHAS activity assay; assay type: biochemical, rice; details: Nt, Line 26, Line 29; FIG. 2
# Experimental: Previously published procedures were used for the extraction and in vitro assay for AHAS activity (Singh et al. 1988). Lower portions of the shoots were used as the source of plant tissue for the assay. The desalted crude extracts were used for the in vitro enzyme assays. Acetolactate produced by the enzyme was converted to acetoin, which was measured by the Westerfield assay system.
# In vitro AHAS assays were performed to understand the basis of herbicide tolerance in the transgenic plants. Previously published procedure was used for the extraction and in vitro assay for AHAS activity (Singh et al. 1988). The lower portions of the shoots were used as the source of plant tissue for the assay. The desalted crude extracts were used for the in vitro enzyme assays. Acetolactate produced by the enzyme was converted to acetoin, which was measured by the Westerfield assay system (Westerfield 1945). The specific activity of AHAS was about 30% higher in Line 26 (67 nmoles/mg protein/h) and Line 29 (64 nmoles/mg protein/h) compared to the activity in Nortai (Nt) (50 nmoles/mg protein/h).
smiles,measurement,setting,value
COc1nc(C)nc(NC(=O)NS(=O)(=O)c2ccccc2Cl)n1 [chlorsulfuron],differences in in vitro resistance,[1]; Arabidopsis ALS promoter replaced with CaMV35S promoter (Li et al. 1992),40 fold
same,increase in in vitro resistance,[1]; transgenic rice containing 35S/als transgene (Li et al. 1992),200 fold
same,inhibition of AHAS activity from all three lines,[2],inhibited in a similar manner
